Reference: patent publication US5099015A, “Trifluoromethyl 1-carba(1-dethia)cephems” (Eli Lilly and Company, priority 1991, dated 1992)
≈ marks a conversion by molar mass, not a printed value. Read-outs that look alike come from different tables or passages of the source.

Experiments:
Experiment in all cases: Agar dilution antibacterial test (MIC)
Format in all cases: cell-based
Acom AC12 = system: Acom AC12
Experimental: (§1) Fresh overnight cultures of test bacteria were diluted to approximately 1x(10)4 cells/microliter and applied in one microliter volumes to the surfaces of the agar plates. The innoculated plates were incubated overnight at 35° C. in ambient air. Minimum inhibitory concentration (mic) endpoints were recorded as the lowest antibiotic concentrations in micrograms per milliliter that inhibited the development of visible growth on the plates. The following summarizes the results of such tests with the compounds of the examples listed above.

Citro CF17 = system: Citro CF17
Experimental: as §1

[1] = system: Enterobacter aerogenes C32
Experimental: as §1

[2] = system: Enterobacter aerogenes EB17
Experimental: as §1

[3] = system: Enterobacter cloacae 265A
Experimental: as §1

Enterobacter cloacae EB5 = system: Enterobacter cloacae EB5
Experimental: as §1

[4] = system: Enterococcus faecalis 2041
Experimental: as §1

Enterococcus faecium X66 = system: Enterococcus faecium X66
Experimental: as §1

Escherichia coli EC14 = system: Escherichia coli EC14
Experimental: as §1

Escherichia coli N10 = system: Escherichia coli N10
Experimental: as §1

Escherichia coli TEM = system: Escherichia coli TEM
Experimental: as §1

[5] = system: Klebsiella pneumoniae KAE
Experimental: as §1

[6] = system: Klebsiella pneumoniae X26
Experimental: as §1

[7] = system: Klebsiella pneumoniae X68
Experimental: as §1

Morg morg PR15 = system: Morg morg PR15
Experimental: as §1

Proteus incon PR33 = system: Proteus incon PR33
Experimental: as §1

Proteus rett C24 = system: Proteus rett C24
Experimental: as §1

Salmonella 1335 = system: Salmonella 1335
Experimental: as §1

Salmonella X514 = system: Salmonella X514
Experimental: as §1

Serratia SE3 = system: Serratia SE3
Experimental: as §1

Serratia X99 = system: Serratia X99
Experimental: as §1

Shig sonn. N9 = system: Shig sonn. N9
Experimental: as §1

[8] = system: Staphylococcus aureus NRRL X1.1
Experimental: as §1

[9] = system: Staphylococcus aureus S13E
Experimental: as §1

[10] = system: Staphylococcus aureus V41
Experimental: as §1

[11] = system: Staphylococcus aureus X400
Experimental: as §1

[12] = system: Staphylococcus epidermidis 222
Experimental: as §1

[13] = system: Staphylococcus epidermidis EPI270
Experimental: as §1

[14] = system: Staphylococcus pneumoniae Park 1
Experimental: as §1

[15] = system: Haemophilus influenzae 76
Experimental: as §1

[16] = system: Haemophilus influenzae C.L.
Experimental: as §1

[17] = system: Staphylococcus pyogenes C203
Experimental: as §1

[18] = Klebsiella aerogenes, read-out: MIC

Nc1nc(C(=NO)C(=O)N[C@@H]2C(=O)N3C(C(=O)O)=C(C(F)(F)F)CC[C@H]23)cs1 [Compound 5]
MIC (Acom AC12): 2 µg/mL (≈ 4.77 µM) | MIC (Citro CF17): 16 µg/mL (≈ 38.2 µM) | MIC [1]: .25 µg/mL (≈ 0.596 µM) | MIC [2]: .06 µg/mL (≈ 0.143 µM) | MIC [3]: 16 µg/mL (≈ 38.2 µM) | MIC (Enterobacter cloacae EB5): .125 µg/mL (≈ 0.298 µM) | MIC [4]: 1 µg/mL (≈ 2.38 µM) | MIC (Enterococcus faecium X66): 8 µg/mL (≈ 19.1 µM) | MIC (Escherichia coli EC14): .03 µg/mL (≈ 0.0715 µM) | MIC (Escherichia coli N10): .125 µg/mL (≈ 0.298 µM) | MIC (Escherichia coli TEM): .03 µg/mL (≈ 0.0715 µM) | MIC [5]: .06 µg/mL (≈ 0.143 µM) | MIC [6]: .015 µg/mL (≈ 0.0358 µM) | MIC [7]: .06 µg/mL (≈ 0.143 µM) | MIC (Morg morg PR15): 2 µg/mL (≈ 4.77 µM) | MIC (Proteus incon PR33): .25 µg/mL (≈ 0.596 µM) | MIC (Proteus rett C24; Proteus rett C24): .125 µg/mL (≈ 0.298 µM) | MIC (Salmonella 1335): .06 µg/mL (≈ 0.143 µM) | MIC (Salmonella X514): .015 µg/mL (≈ 0.0358 µM) | MIC (Serratia SE3): 8 µg/mL (≈ 19.1 µM) | MIC (Serratia X99): .5 µg/mL (≈ 1.19 µM) | MIC (Shig sonn. N9): .06 µg/mL (≈ 0.143 µM) | MIC [8]: 1 µg/mL (≈ 2.38 µM) | MIC [9]: 4 µg/mL (≈ 9.54 µM) | MIC [10]: 2 µg/mL (≈ 4.77 µM) | MIC [11]: 8 µg/mL (≈ 19.1 µM) | MIC [12]: 1 µg/mL (≈ 2.38 µM) | MIC [13]: 4 µg/mL (≈ 9.54 µM) | MIC [14]: .015 µg/mL (≈ 0.0358 µM)

N[C@@H](C(=O)N[C@@H]1C(=O)N2C(C(=O)O)=C(C(F)(F)F)CC[C@H]12)c1cccc(Br)c1 [Compound 7]
MIC (Citro CF17; read-out: MIC): 32 µg/mL (≈ 69.2 µM) | MIC [1, 18]: 16 µg/mL (≈ 34.6 µM) | MIC [2, 18]: 32 µg/mL (≈ 69.2 µM) | MIC ([3]; read-out: MIC): 64 µg/mL (≈ 138 µM) | MIC (Enterobacter cloacae EB5; read-out: MIC): 64 µg/mL (≈ 138 µM) | MIC ([4]; read-out: MIC): 8 µg/mL (≈ 17.3 µM) | MIC (Enterococcus faecium X66; read-out: MIC): 16 µg/mL (≈ 34.6 µM) | MIC (Escherichia coli EC14; read-out: MIC): 4 µg/mL (≈ 8.65 µM) | MIC (Escherichia coli N10; read-out: MIC): 8 µg/mL (≈ 17.3 µM) | MIC (Escherichia coli TEM; read-out: MIC): 4 µg/mL (≈ 8.65 µM) | MIC ([15]; read-out: MIC): 1 µg/mL (≈ 2.16 µM) | MIC ([16]; read-out: MIC): 0.5 µg/mL (≈ 1.08 µM) | MIC ([5]; read-out: MIC): 16 µg/mL (≈ 34.6 µM) | MIC ([6]; read-out: MIC): 0.25 µg/mL (≈ 0.541 µM) | MIC ([7]; read-out: MIC): 4 µg/mL (≈ 8.65 µM) | MIC (Morg morg PR15; read-out: MIC): 16 µg/mL (≈ 34.6 µM) | MIC (Proteus incon PR33; read-out: MIC): 8 µg/mL (≈ 17.3 µM) | MIC (Proteus rett C24): 128 µg/mL (≈ 277 µM) | MIC (Salmonella 1335; read-out: MIC): 16 µg/mL (≈ 34.6 µM) | MIC (Salmonella X514; read-out: MIC): 4 µg/mL (≈ 8.65 µM) | MIC (Serratia SE3): > 128 µg/mL | MIC (Serratia X99; read-out: MIC): 64 µg/mL (≈ 138 µM) | MIC ([8]; NRRLX1.1, read-out: MIC): 1 µg/mL (≈ 2.16 µM) | MIC [9]: 8 µg/mL (≈ 17.3 µM) | MIC ([10]; read-out: MIC): 4 µg/mL (≈ 8.65 µM) | MIC ([11]; read-out: MIC): 16 µg/mL (≈ 34.6 µM) | MIC ([12]; read-out: MIC): 1 µg/mL (≈ 2.16 µM) | MIC ([13]; read-out: MIC): 1 µg/mL (≈ 2.16 µM) | MIC ([14]; PARK1, read-out: MIC): 0.125 µg/mL (≈ 0.27 µM) | MIC ([17]; read-out: MIC): 0.125 µg/mL (≈ 0.27 µM)

N[C@@H](C(=O)N[C@@H]1C(=O)N2C(C(=O)O)=C(C(F)(F)F)CC[C@H]12)c1cccc(F)c1 [Compound 8]
MIC (Citro CF17; read-out: MIC): 16 µg/mL (≈ 39.9 µM) | MIC [1, 18]: 16 µg/mL (≈ 39.9 µM) | MIC [2, 18]: 8 µg/mL (≈ 19.9 µM) | MIC ([3]; read-out: MIC): 32 µg/mL (≈ 79.7 µM) | MIC (Enterobacter cloacae EB5; read-out: MIC): 16 µg/mL (≈ 39.9 µM) | MIC ([4]; read-out: MIC): 32 µg/mL (≈ 79.7 µM) | MIC (Enterococcus faecium X66; read-out: MIC): 64 µg/mL (≈ 159 µM) | MIC (Escherichia coli EC14; read-out: MIC): 4 µg/mL (≈ 9.97 µM) | MIC (Escherichia coli N10; read-out: MIC): 4 µg/mL (≈ 9.97 µM) | MIC (Escherichia coli TEM; read-out: MIC): 2 µg/mL (≈ 4.98 µM) | MIC ([15]; read-out: MIC): 2 µg/mL (≈ 4.98 µM) | MIC ([16]; read-out: MIC): 2 µg/mL (≈ 4.98 µM) | MIC ([5]; read-out: MIC): 16 µg/mL (≈ 39.9 µM) | MIC ([6]; read-out: MIC): 2 µg/mL (≈ 4.98 µM) | MIC ([7]; read-out: MIC): 2 µg/mL (≈ 4.98 µM) | MIC (Morg morg PR15; read-out: MIC): 32 µg/mL (≈ 79.7 µM) | MIC (Proteus incon PR33; read-out: MIC): 16 µg/mL (≈ 39.9 µM) | MIC (Proteus rett C24; Proteus rett C24, read-out: MIC): 16 µg/mL (≈ 39.9 µM) | MIC (Salmonella 1335; read-out: MIC): 4 µg/mL (≈ 9.97 µM) | MIC (Salmonella X514; read-out: MIC): 2 µg/mL (≈ 4.98 µM) | MIC (Serratia SE3; read-out: MIC): 64 µg/mL (≈ 159 µM) | MIC (Serratia X99; read-out: MIC): 32 µg/mL (≈ 79.7 µM) | MIC (Shig sonn. N9; read-out: MIC): 2 µg/mL (≈ 4.98 µM) | MIC ([8]; NRRLX1.1, read-out: MIC): 2 µg/mL (≈ 4.98 µM) | MIC [9]: 32 µg/mL (≈ 79.7 µM) | MIC ([10]; read-out: MIC): 16 µg/mL (≈ 39.9 µM) | MIC ([11]; read-out: MIC): 64 µg/mL (≈ 159 µM) | MIC ([12]; read-out: MIC): 4 µg/mL (≈ 9.97 µM) | MIC ([13]; read-out: MIC): 4 µg/mL (≈ 9.97 µM) | MIC ([14]; PARK1, read-out: MIC): 0.25 µg/mL (≈ 0.623 µM) | MIC ([17]; read-out: MIC): 0.06 µg/mL (≈ 0.15 µM)

NC(C(=O)N[C@@H]1C(=O)N2C(C(=O)O)=C(C(F)(F)F)CC[C@H]12)c1cccc(C(F)(F)F)c1 (stereo partly drawn) [Compound 9, [6R,7S]-7-β-[D-α-(amino)-3-trifluoromethylphenylacetylamino]-3-trifluoromethyl-1-carba-1-carba-1-dethia3-cephem-4-carboxylic acid]
MIC (Acom AC12): 32 µg/mL (≈ 70.9 µM) | MIC (Citro CF17): 128 µg/mL (≈ 284 µM) | MIC [1]: 128 µg/mL (≈ 284 µM) | MIC [2]: 128 µg/mL (≈ 284 µM) | MIC [3]: 128 µg/mL (≈ 284 µM) | MIC (Enterobacter cloacae EB5): 4 µg/mL (≈ 8.86 µM) | MIC [4]: 16 µg/mL (≈ 35.5 µM) | MIC (Enterococcus faecium X66): 32 µg/mL (≈ 70.9 µM) | MIC (Escherichia coli EC14): 8 µg/mL (≈ 17.7 µM) | MIC (Escherichia coli N10): 32 µg/mL (≈ 70.9 µM) | MIC (Escherichia coli TEM): 16 µg/mL (≈ 35.5 µM) | MIC [15]: 1 µg/mL (≈ 2.22 µM) | MIC [16]: 1 µg/mL (≈ 2.22 µM) | MIC [5]: 64 µg/mL (≈ 142 µM) | MIC [6]: 1 µg/mL (≈ 2.22 µM) | MIC [7]: 16 µg/mL (≈ 35.5 µM) | MIC (Morg morg PR15): 32 µg/mL (≈ 70.9 µM) | MIC (Proteus incon PR33): 32 µg/mL (≈ 70.9 µM) | MIC (Proteus rett C24; Proteus rett C24): 64 µg/mL (≈ 142 µM) | MIC (Salmonella 1335): 64 µg/mL (≈ 142 µM) | MIC (Salmonella X514): 32 µg/mL (≈ 70.9 µM) | MIC (Serratia SE3): > 128 µg/mL | MIC (Serratia X99): 128 µg/mL (≈ 284 µM) | MIC [8]: 2 µg/mL (≈ 4.43 µM) | MIC [9]: 16 µg/mL (≈ 35.5 µM) | MIC [10]: 4 µg/mL (≈ 8.86 µM) | MIC [11]: 16 µg/mL (≈ 35.5 µM) | MIC [12]: 1 µg/mL (≈ 2.22 µM) | MIC [13]: 4 µg/mL (≈ 8.86 µM) | MIC [14]: .125 µg/mL (≈ 0.277 µM) | MIC [17]: 6 µg/mL (≈ 13.3 µM)
